Test systems include MDA-MB-435; SNB-19 CNS; DU-145 prostate; SK-MEL-28 melanoma; CAKI-1 renal; SN12C renal; HCT-116 colon; A549 NSCLC; NCI-H23 lung; T-47D breast.
What all share (assay): NCI tumour cell line growth inhibition, 48 h

SMILES strings stand for the structures. Where “and” joins values, the source holds several entries; their conditions need not be identical. Equal values may be shown once.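 Test compounds were applied to cells in 96-well plates for 48 hours at 5 doses. GI50: concentration for 50% inhibition of growth. TGI: total growth inhibition.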

Consider `C=CC(=O)N1CCC(Oc2cc3c(Nc4ccc(Cl)c(Cl)c4F)ncnc3cc2OC)CC1`, for which the GI50 is 2.23 µM and 1.8 µM with MDA-MB-435; 8.97 µM and 6.52 µM in the experiment on SNB-19 CNS; 11.6 µM and > 9.46 µM in the experiment on SK-MEL-28 melanoma; 2.88 µM and 1.79 µM in the experiment on SN12C renal; 5.28 µM and 3.72 µM with HCT-116 colon; 3.12 µM and 1.6 µM in the experiment with A549 NSCLC. Further, the GI50 in the experiment with NCI-H23 lung was 4.52 µM and 3.18 µM; in the experiment with T-47D breast, < 0.01 µM and 0.0178 µM. In addition, the TGI in the experiment on MDA-MB-435 was 8.3 µM and 4.7 µM; with SNB-19 CNS, 23.9 µM and > 10 µM; with DU-145 prostate it was 15.4 µM and > 10 µM; in the experiment on SK-MEL-28 melanoma it was 25.8 µM and > 10 µM; in the experiment on CAKI-1 renal, 12.6 µM and 2.36 µM; in the experiment with SN12C renal, 25.2 µM and > 10 µM. Further, the TGI in the experiment on HCT-116 colon was 18.9 µM and > 10 µM; in the experiment with A549 NSCLC, 19.9 µM and > 10 µM; with NCI-H23 lung it was 21.7 µM and > 10 µM; in the experiment on T-47D breast, 25.9 µM and > 10 µM.

In the case of `COc1cc(Nc2ncccc2C(=O)Nc2nc3ccc(F)cc3s2)cc(OC)c1OC`, the GI50 is 2.87 µM with MDA-MB-435; 3.49 µM in the experiment on SNB-19 CNS; 5.5 µM with DU-145 prostate; 4.33 µM in the experiment on SK-MEL-28 melanoma; 3.15 µM in the experiment with CAKI-1 renal; 4.73 µM in the experiment on SN12C renal. The GI50 is 3.49 µM in the experiment on HCT-116 colon, 3.11 µM in the experiment with A549 NSCLC, 2.27 µM in the experiment with NCI-H23 lung and 2.3 µM in the experiment with T-47D breast. Besides, the TGI with MDA-MB-435, in the experiment on SNB-19 CNS, in the experiment with DU-145 prostate, with SK-MEL-28 melanoma, in the experiment on CAKI-1 renal and with SN12C renal was > 100 µM each time. Also, the TGI in the experiment on HCT-116 colon was > 100 µM; in the experiment on A549 NSCLC, > 100 µM; in the experiment on NCI-H23 lung, > 100 µM; with T-47D breast, 7.86 µM.

On to `CC(=O)OC1OC([C@H]2c3cccc(O)c3C(=O)c3c(O)cc(C)cc32)C(O)C(O)C1O` (stereo not given in full), for which the GI50 with MDA-MB-435 is 0.0817 µM; in the experiment with SNB-19 CNS, 0.0342 µM; with DU-145 prostate, 0.281 µM; in the experiment on SK-MEL-28 melanoma, 0.191 µM; in the experiment with CAKI-1 renal, 0.0773 µM; in the experiment on SN12C renal it was < 0.0259 µM. For the same molecule, the GI50 was < 0.01 µM in the experiment on HCT-116 colon, 0.0479 µM in the experiment with A549 NSCLC, < 0.0161 µM in the experiment with NCI-H23 lung and 0.0319 µM with T-47D breast. Moreover, the TGI was 2.72 µM with MDA-MB-435; 12.5 µM with DU-145 prostate; > 23.2 µM with SK-MEL-28 melanoma; 0.544 µM in the experiment on CAKI-1 renal; 1.18 µM in the experiment on HCT-116 colon; 15.1 µM in the experiment with A549 NSCLC. In addition, the TGI in the experiment on T-47D breast was > 41.1 µM.

For `CN(C)Cc1cc(C(F)(F)F)ccc1C(O)(c1ccccc1)c1ccccc1`, the TGI in the experiment with MDA-MB-435 is 58 µM; in the experiment on SNB-19 CNS, 38.4 µM; in the experiment with DU-145 prostate it was > 100 µM; in the experiment on SK-MEL-28 melanoma, 31 µM; with CAKI-1 renal, 31.2 µM; in the experiment on SN12C renal, 29.3 µM. In addition, the TGI in the experiment with HCT-116 colon was 26.8 µM; with A549 NSCLC, 29.5 µM; in the experiment on NCI-H23 lung it was 79.3 µM; in the experiment with T-47D breast it was 47.3 µM.

Take `NCCCNCCS`: the TGI in the experiment with MDA-MB-435, in the experiment with SNB-19 CNS, in the experiment with DU-145 prostate, in the experiment with SK-MEL-28 melanoma, in the experiment on CAKI-1 renal and in the experiment on SN12C renal was > 100 µM each time. Further, the TGI with HCT-116 colon, in the experiment on A549 NSCLC, in the experiment with NCI-H23 lung and with T-47D breast was > 100 µM in each case.

Take `CN(C)CCC(=O)N1C/C(=C\c2ccc(Cl)c(Cl)c2)C(=O)/C(=C/c2ccc(Cl)c(Cl)c2)C1`: the TGI worked out at 1.6 µM in the experiment with MDA-MB-435; 2.13 µM in the experiment with SNB-19 CNS; 0.867 µM in the experiment on DU-145 prostate; 1.82 µM with SK-MEL-28 melanoma; 0.984 µM in the experiment on CAKI-1 renal; 0.44 µM in the experiment with SN12C renal. The TGI in the experiment on HCT-116 colon turned out to be 0.331 µM; in the experiment with A549 NSCLC it was 2.05 µM; with NCI-H23 lung it was 1.5 µM; with T-47D breast, 2.48 µM.

For `Cc1ccc(S(=O)(=O)N=Nc2c(O)[nH]c3cc(O)c(C(=O)O)cc23)cc1`, the TGI with MDA-MB-435, in the experiment on SNB-19 CNS, with DU-145 prostate, with SK-MEL-28 melanoma, in the experiment with CAKI-1 renal and in the experiment with SN12C renal was > 100 µM each time. The TGI in the experiment on HCT-116 colon, in the experiment on A549 NSCLC, in the experiment on NCI-H23 lung and in the experiment with T-47D breast was > 100 µM each time.

For `O=C1C=CC(=O)C2C1C1(Cl)C(Cl)=C(Cl)C2(Cl)C1(Cl)Cl` (stereo not given), the GI50 in the experiment on MDA-MB-435 is 1.69 µM; with SNB-19 CNS it was 11.2 µM; in the experiment on DU-145 prostate it was 3.73 µM; in the experiment on SK-MEL-28 melanoma, 9.63 µM; in the experiment on CAKI-1 renal, 2.84 µM; in the experiment on SN12C renal, 6 µM. Besides, the GI50 is 3.51 µM with HCT-116 colon, 5.5 µM with A549 NSCLC, 4.85 µM in the experiment with NCI-H23 lung and 4.95 µM in the experiment with T-47D breast. Moreover, the TGI in the experiment on MDA-MB-435 is 4.06 µM; with SNB-19 CNS, 25.4 µM; in the experiment with DU-145 prostate, 15.6 µM; with SK-MEL-28 melanoma it was 21.8 µM; in the experiment with CAKI-1 renal it was 12.1 µM; with SN12C renal, 25.6 µM. The TGI came out at 14.6 µM in the experiment with HCT-116 colon, 26.5 µM in the experiment on A549 NSCLC, 26.3 µM in the experiment on NCI-H23 lung and 22.7 µM in the experiment on T-47D breast.

Take `C=C(C)[C@@H]1CC[C@]2(COCCCN)CC[C@]3(C)[C@H](CC[C@@H]4[C@@](C)(CCCNCCCN)[C@H](C(=C)C)CC[C@]43C)[C@@H]12`: the GI50 with MDA-MB-435 is 1.84 µM; in the experiment with SNB-19 CNS, 1.84 µM; in the experiment on DU-145 prostate it was 1.92 µM; in the experiment on SK-MEL-28 melanoma it was 1.72 µM; in the experiment on CAKI-1 renal, 1.75 µM; with SN12C renal, 1.58 µM. Besides, the GI50 in the experiment on HCT-116 colon was 1.45 µM; with A549 NSCLC it was 1.89 µM; in the experiment with NCI-H23 lung, 1.79 µM; with T-47D breast, 1.78 µM. Moreover, the TGI was 3.41 µM with MDA-MB-435; 3.56 µM with SNB-19 CNS; 3.43 µM with DU-145 prostate; 3.14 µM with SK-MEL-28 melanoma; 3.13 µM in the experiment on CAKI-1 renal; 2.96 µM in the experiment on SN12C renal. In addition, the TGI in the experiment with HCT-116 colon amounted to 2.84 µM; in the experiment with A549 NSCLC it was 3.63 µM; with NCI-H23 lung, 3.63 µM; with T-47D breast, 3.63 µM.

In the case of `CC(C)(C)c1cc([N+](=O)[O-])cc([N+](=O)[O-])c1O`, the TGI in the experiment with MDA-MB-435, in the experiment with SNB-19 CNS, in the experiment on DU-145 prostate, in the experiment on SK-MEL-28 melanoma, with CAKI-1 renal and in the experiment on SN12C renal was > 10 µM throughout. Further, the TGI in the experiment on HCT-116 colon, in the experiment with A549 NSCLC, in the experiment on NCI-H23 lung and with T-47D breast was > 10 µM in each case.

For the origin of these results see PubChem BioAssay (NCI).
